Data taken from patent publication US20150367034A1, “CREATION OF THREE-DIMENSIONAL SYNTHETIC TISSUE FROM PLURIPOTENT STEM CELL-DERIVED CELLS, AND OSTEOCHONDRAL REGENERATION TREATMENT USING SAID SYNTHETIC TISSUE” (OSAKA UNIVERSITY, priority 2013, published 2015).

Legend:
Synovial cells = test: Extracellular matrix formation and collagen content (hydroxyproline) of synovial cell synthetic tissue; type: cell-based; details: pig synovial cells
Description: Synovial cells were collected from a knee joint of a pig (LWD ternary hybrid, 2-3 months old upon removal of cells), followed by treatment with collagenase. The cells were cultured and subcultured in a 10% fetal bovine serum+High Glucose-DMEM medium (fetal bovine serum available from HyClone, DMEM was obtained from GIBCO). It has been reported that 10th passage synovial cells still have pluripotency. Although cells of 10 or less passages were used in this production example, it is understood that cells of more than 10 passages may be used depending on the application. Autotransplantation was performed for actual human implantation, but it was necessary to secure a sufficient number of cells and to culture the cells for a short period of time so as to reduce the risk of infection or the like. Synovial cells (4.0×10^5) were cultured in 0.1-0.2 ml/cm^2 of 10% FBS-DMEM medium in a 35-mm dish, 60-mm dish, 100-mm dish, 150-mm dish, 500-m dish, 6-well culture dish, 12-well culture dish, or 24-well culture dish (BD Biosciences, cell culture dish and multiwell cell culture plate). In this case, ascorbic acid was added. […] In order to determine the collagen concentration, the collagen content was measured. […]

ES-MSCs = test: Volume, weight and hydroxyproline of TEC from ES-MSCs with or without ascorbic acid 2-phosphate; type: cell-based, rabbit; details: 0.2 mM added versus non-added; FIG. 3
Description: The protocol thereof is disclosed below.
ES-MSCs were inoculated at a TEC creation concentration (1.52×10^5 cells/well) in each well of a 12 well plate to create a TEC. A medium was created by separating conventional 10% FBS-containing DMEM for TEC creation into a 0.2 mM ascorbic acid added group (n=6) and non-added group (n=6). Three of each group were used for weight/volume measurements and the rest of the three were used in hydroxyproline measurements. For hydroxyproline, the following kit was used (Hydroxyproline Assay Kit Cat#K555-100; Lot#60855, BioVision), where the measurements were taken in accordance with the protocol on the package insert.
For the TEC made from 0.125×10^6, 0.25×10^6, 0.5×10^6, 1×10^6, 2×10^6, 4×10^6, 8×10^6, or 16×10^6 cells/well in a 6 well plate which was cultured over 12 days, detached, and allowed to undergo self-contraction, the volume was measured with a plethysmometer (model TK-101CMP; UNICOM, Chiba, Japan), and the weight was measured with a scale (Ando W, Tateishi K, Katakai D, Hart D A, Higuchi C, Nakata K, et al., Tissue Eng Part A 2008:14:2041-2049). 4 samples were evaluated at each cell density. In short, a plethysmometer is a minute volume controlled measuring device that is specially designed for accurate measurement. A plethysmometer consists of Perspex cells filled with water. A transducer records a small difference in the water level caused by a change in volume. […] The weight was measured with a common scale (METTLER TOLEDO AG204, Mettler-Toledo International Inc., Max210gd=0.1 mg, METTLER TOLEDO AG204 (Mettler-Toledo International Inc.)) in a laboratory […]. Measurements were taken in accordance with the protocol on the package insert.

Compound: O=C1O[C@H]([C@@H](O)CO)C(O)=C1OP(=O)(O)O [ascorbic acid 2-phosphate]
- production of collagen (amount of hydroxyproline) (Synovial cells; 0.1 mM or more added): significantly promoted
- formation of an extracellular matrix (Synovial cells; added at a concentration of 0.1 mM or more): promoted
- hydroxyproline generation amount of TEC (ES-MSCs): significantly increased
- volume of TEC (ES-MSCs): significantly increased
- weight of TEC (ES-MSCs): significantly increased
